This experiment has as its target canine TRPM8 (Canis lupus familiaris, UniProt Q1A7N1). As to the kind of experiment: In Vitro Canine TRPM8 Functional Assay (Ca2+ fluorescence, icilin activation). The class given is cell-based. To be noted: for inhibition at 0.2 µM / % Inh @ 0.2 (μM): compound at 0.2 μM, canine TRPM8, icilin activation; for inhibition at 0.2 µM: read-out: % Inh @ 0.2; for pIC50: HEK293 cells stably expressing canine TRPM8, icilin activation, eight-point dose-response, read-out: IC50. Put shortly: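 HEK293 cells stably expressing canine TRPM8 loaded with Calcium 3 dye; compound added and Ca2+ fluorescence monitored 5 min before icilin at a final level giving ~80% maximal response, read on FLIPR or FDSS. EC50 or IC50 from eight-point dose-response, quadruplicate wells per point.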

pIC50: −log10 of the molar value.

canine TRPM8, sequence (Q1A7N1 1-1104): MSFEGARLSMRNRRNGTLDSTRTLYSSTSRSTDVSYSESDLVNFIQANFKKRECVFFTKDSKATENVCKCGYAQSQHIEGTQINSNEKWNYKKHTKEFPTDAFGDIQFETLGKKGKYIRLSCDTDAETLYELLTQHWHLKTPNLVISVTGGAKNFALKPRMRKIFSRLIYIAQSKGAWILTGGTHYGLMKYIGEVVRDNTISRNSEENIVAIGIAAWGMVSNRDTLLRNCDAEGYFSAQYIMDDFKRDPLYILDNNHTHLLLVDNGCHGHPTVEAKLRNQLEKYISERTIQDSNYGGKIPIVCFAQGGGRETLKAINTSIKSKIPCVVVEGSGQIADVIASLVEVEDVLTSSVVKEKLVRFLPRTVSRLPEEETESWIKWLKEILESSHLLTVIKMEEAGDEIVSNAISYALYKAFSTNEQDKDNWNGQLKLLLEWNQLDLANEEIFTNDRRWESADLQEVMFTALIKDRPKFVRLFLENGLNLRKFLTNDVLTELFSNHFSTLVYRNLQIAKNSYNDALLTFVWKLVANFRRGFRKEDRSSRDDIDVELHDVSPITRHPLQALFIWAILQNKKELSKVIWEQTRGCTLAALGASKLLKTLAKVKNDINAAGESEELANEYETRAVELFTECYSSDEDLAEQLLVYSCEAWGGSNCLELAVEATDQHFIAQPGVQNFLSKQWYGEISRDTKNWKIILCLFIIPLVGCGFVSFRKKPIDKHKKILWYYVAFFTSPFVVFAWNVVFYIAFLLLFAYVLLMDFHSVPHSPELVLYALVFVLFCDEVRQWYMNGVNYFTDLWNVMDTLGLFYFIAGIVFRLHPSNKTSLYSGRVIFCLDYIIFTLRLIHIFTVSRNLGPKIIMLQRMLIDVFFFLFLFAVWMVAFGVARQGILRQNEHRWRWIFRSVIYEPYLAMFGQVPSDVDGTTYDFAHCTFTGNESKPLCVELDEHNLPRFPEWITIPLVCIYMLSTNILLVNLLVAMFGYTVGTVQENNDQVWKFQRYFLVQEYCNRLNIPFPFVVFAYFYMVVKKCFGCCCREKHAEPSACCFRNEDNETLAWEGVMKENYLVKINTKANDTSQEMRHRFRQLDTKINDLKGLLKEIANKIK

With `CCCCN(C1=Cc2ccccc2S1(=O)=O)S(=O)(=O)c1ccc(C(=O)OC)cc1` [Compound 430, N-(Butyl)-N-(1,1-dioxo-benzo[b]thiophen-2-yl)-4-carbomethoxy-benzenesulfonamide], the inhibition at 0.2 µM was determined as 52%. What is called pIC50 is the IC50 on a negative log10 scale, so that one unit is a factor of ten. Consider `O=S1(=O)C(N(Cc2ccc(F)c(C(F)(F)F)c2)S(=O)(=O)c2ccccc2)=C(Br)c2ccccc21` [Compound 431, N-(3-Bromo-1,1-dioxo-benzo[b]thiophen-2-yl)-N-(4-fluoro-3-trifluoromethyl-benzyl)-benzenesulfonamide], for which the pIC50 was 7.70 and the inhibition at 0.2 µM is 88%. Take `CCCCN(C1=Cc2ccccc2S1(=O)=O)S(=O)(=O)c1ccc(C(=O)O)cc1` [Compound 432, N-(Butyl)-N-(1,1-dioxo-1H-benzo[b]thiophen-2-yl)-4-carboxy-benzenesulfonamide]: the inhibition at 0.2 µM came out at 42%. On to `CCCCN(C1=C(Br)c2ccccc2S1(=O)=O)S(=O)(=O)c1ccc(C(=O)OC)cc1` [Compound 433, N-(3-Bromo-1,1-dioxo-benzo[b]thiophen-2-yl)-N-(butyl)-4-carbomethoxy-benzenesulfonamide], for which the pIC50 is 7.48 and the inhibition at 0.2 µM was 93%. On to `CCCCN(C1=C(OC)c2ccccc2S1(=O)=O)S(=O)(=O)c1ccc(C(=O)O)cc1` [Compound 434, N-(Butyl)-N-(3-methoxy-1,1-dioxo-1H-benzo[b]thiophen-2-yl)-4-carboxy-benzenesulfonamide], for which the pIC50 is 7.77 and the inhibition at 0.2 µM worked out at 90%. In the case of `CCCCN(C1=C(Br)c2ccccc2S1(=O)=O)S(=O)(=O)c1ccc(C(=O)O)cc1` [Compound 435, N-(Butyl)-N-(3-bromo-1,1-dioxo-1H-benzo[b]thiophen-2-yl)-4-carboxy-benzenesulfonamide], the pIC50 was 7.48 and the inhibition at 0.2 µM worked out at 95%. In the same order, the values of `CCCCN(C1=C(OC)c2ccccc2S1(=O)=O)S(=O)(=O)c1ccc(C(=O)OC)cc1` [Compound 436, N-(Butyl)-N-(3-methoxy-1,1-dioxo-1H-benzo[b]thiophen-2-yl)-4-carbomethoxy-benzenesulfonamide] are 8.40 and 89%. In the same order, the values of `O=C(O)c1ccc(S(=O)(=O)N(CC2CCC2)c2sc3ccccc3c2Br)cc1` [Compound 437, N-(3-Bromo-benzo[b]thiophen-2-yl)-N-(cyclobutylmethyl)-4-carboxy-benzenesulfonamide] are 8.05 and 92%. On the same counts, the results for `O=C(O)c1ccc(S(=O)(=O)N(CC2CCCC2)c2sc3ccccc3c2Br)cc1` [Compound 438, N-(3-Bromo-benzo[b]thiophen-2-yl)-N-(cyclopentylmethyl)-4-carboxy-benzenesulfonamide] are 8.70 and 90%. For the compound `O=C(O)c1ccc(S(=O)(=O)N(C[C@@H]2C[C@@H]3CC[C@H]2C3)c2sc3ccccc3c2Br)cc1` [Compound 439, RS,RS—N-(Bicyclo[2.2.1]heptan-2-ylmethyl)-N-(3-bromobenzo[b]thiophen-2-yl)-4-carboxy-benzenesulfonamide], the pIC50 was 8.70 and the “% Inh @ 0.2 (μM)” value amounted to 86%.

On to `O=C(O)c1ccc(S(=O)(=O)N(CC2CCOCC2)c2sc3ccccc3c2Br)cc1` [Compound 440, N-(3-Bromo-benzo[b]thiophen-2-yl)-N-((tetrahydro-2H-pyran-4-yl)methyl)-4-carboxy-benzenesulfonamide], for which the pIC50 is 7.85 and the inhibition at 0.2 µM stood at 84%.

As to `CN(C)CCN(c1sc2ccccc2c1Br)S(=O)(=O)c1ccc(C(=O)O)cc1` [Compound 441, N-(3-Bromo-benzo[b]thiophen-2-yl)-N-(2-(dimethylamino)ethyl)-4-carboxy-benzenesulfonamide], the inhibition at 0.2 µM is 37%.

Take `CCCCN(c1cc2ccccc2s1)S(=O)(=O)c1ccc(-c2noc(=O)[nH]2)cc1` [Compound 442, N-(Benzo[b]thiophen-2-yl)-N-(butyl)-4-(5-oxo-4,5-dihydro-[1,2,4]oxadiazol-3-yl)-benzenesulfonamide]: the pIC50 was 7.17 and the inhibition at 0.2 µM is 81%. For the compound `CCCCN(c1sc2ccccc2c1Br)S(=O)(=O)c1ccc(-c2noc(=O)[nH]2)cc1` [Compound 443, N-(3-Bromo-benzo[b]thiophen-2-yl)-N-(butyl)-4-(5-oxo-4,5-dihydro-[1,2,4]oxadiazol-3-yl)-benzenesulfonamide], the negative-log IC50 (pIC50) was 7.85 and the inhibition at 0.2 µM was 94%. For `CCCCN(c1cc2ccccc2s1)S(=O)(=O)c1ccc(N(C)C)cc1` [Compound 444, N-(Benzo[b]thiophen-2-yl)-N-(butyl)-4-dimethylamino-benzenesulfonamide], the pIC50 was 6.91 and the inhibition at 0.2 µM stood at 92%. For the compound `CCCCN(c1cc2ccccc2s1)S(=O)(=O)c1ccc(N2CCCC2)cc1` [Compound 445, N-(Benzo[b]thiophen-2-yl)-N-(butyl)-4-pyrrolidin-1-yl-benzenesulfonamide], the inhibition at 0.2 µM was 58%. Turning to `CCCCN(c1cc2ccccc2s1)S(=O)(=O)c1ccc(N2CCOCC2)cc1` [Compound 446, N-Benzo[b]thiophen-2-yl-N-(butyl)-4-morpholin-4-yl-benzenesulfonamide], the pIC50 is 7.02 and the inhibition at 0.2 µM stood at 82%. In the case of `CCCCN(c1cc2ccccc2s1)S(=O)(=O)c1ccc(N2CCN(C)CC2)cc1` [Compound 447, N-(Benzo[b]thiophen-2-yl)-N-(butyl)-4-(4-methyl-piperazin-1-yl)-benzenesulfonamide], the inhibition at 0.2 µM was 19%. For `CCCCN(c1sc2ccccc2c1C)S(=O)(=O)c1cccnc1N(C)C` [Compound 448, N-(3-Methyl-benzo[b]thiophen-2-yl)-N-(butyl)-2-dimethylamino-pyridin-3-yl-sulfonamide], the pIC50 was 7.92 and the inhibition at 0.2 µM was determined as 102%. With `CCCCN(c1cc2ccccc2s1)S(=O)(=O)c1ccc(-c2nnn[nH]2)cc1` [Compound 449, N-(Benzo[b]thiophen-2-yl)-N-(butyl)-4-(1H-tetrazol-5-yl)-benzenesulfonamide], the pIC50 is 7.06 and the inhibition at 0.2 µM was 97%. As to `CCCCN(c1sc2cc(F)ccc2c1C)S(=O)(=O)c1ccc(C(=O)O)cc1` [Compound 450, N-(6-Fluoro-3-methyl-benzo[b]thiophen-2-yl)-N-(butyl)-4-carboxy-benzenesulfonamide], the pIC50 was 7.54 and the inhibition at 0.2 µM came out at 101%. Turning to `O=C(O)c1ccc(S(=O)(=O)N(CCCC(F)(F)F)c2cc3ccccc3s2)cc1` [Compound 451, N-(Benzo[b]thiophen-2-yl)-N-(4,4,4-trifluoro-butyl)-4-carboxy-benzenesulfonamide], the pIC50 is 7.17 and the inhibition at 0.2 µM was 97%. In the same order, the values of `CC(C)CN(c1sc2ccccc2c1Br)S(=O)(=O)c1ccc(C(=O)O)cc1` [Compound 452, N-(3-Bromo-benzo[b]thiophen-2-yl)-N-(isobutyl)-4-carboxy-benzenesulfonamide] are 7.74 and 101%. On the same counts, the results for `O=C(O)c1ccc(S(=O)(=O)N(CCOC2CCCCC2)c2sc3ccccc3c2Br)cc1` [Compound 453, N-(3-Bromo-benzo[b]thiophen-2-yl)-N-(2-(cyclohexyloxy)ethyl)-4-carboxy-benzenesulfonamide] are 8.70 and 101%. Take `COC(C)(C)CCN(c1sc2ccccc2c1Br)S(=O)(=O)c1ccc(C(=O)O)cc1` [Compound 454, N-(3-Bromo-benzo[b]thiophen-2-yl)-N-(3-methoxy-3-methylbutyl)-4-carboxy-benzenesulfonamide]: the pIC50 was 8.40 and the inhibition at 0.2 µM stood at 101%. Turning to `Cc1c(N(Cc2ccc(F)c(C(F)(F)F)c2)S(=O)(=O)c2cccc(-c3nnn[nH]3)c2)sc2ccccc12` [Compound 455, N-(3-Methyl-benzo[b]thiophen-2-yl)-N-(4-fluoro-3-trifluoromethyl-benzyl)-3-(1H-tetrazol-5-yl)-benzenesulfonamide], the pIC50 was 7.44 and the inhibition at 0.2 µM was 101%. Turning to `O=C(O)c1ccc(S(=O)(=O)N(CCC(F)(F)F)c2cc3ccccc3s2)cc1` [Compound 456, N-(Benzo[b]thiophen-2-yl)-N-(3,3,3-trifluoro-propyl)-4-carboxy-benzenesulfonamide], the inhibition at 0.2 µM is 67%.

As to `CN(C)C(=O)c1c(N(Cc2ccc(F)c(C(F)(F)F)c2)S(=O)(=O)c2ccccc2)sc2ccccc12` [Compound 457, N-(3-Dimethyl-carbamoyl-benzo[b]thiophen-2-yl)-N-(4-fluoro-3-trifluoromethyl-benzyl)-benzenesulfonamide], the negative logarithm of the IC50 (pIC50) was 7.33 and the “% Inh @ 0.2 (μM)” value was 93%.

Turning to `CNC(=O)c1c(N(Cc2ccc(F)c(C(F)(F)F)c2)S(=O)(=O)c2ccccc2)sc2ccccc12` [Compound 458, N-(3-Methyl-carbamoyl-benzo[b]thiophen-2-yl)-N-(4-fluoro-3-trifluoromethyl-benzyl)-benzenesulfonamide], the pIC50 was 7.92 and the “% Inh @ 0.2 (μM)” value is listed as 102%.

Take `NC(=O)c1c(N(Cc2ccc(F)c(C(F)(F)F)c2)S(=O)(=O)c2ccccc2)sc2ccccc12` [Compound 459, N-(3-Carbamoyl-benzo[b]thiophen-2-yl)-N-(4-fluoro-3-trifluoromethyl-benzyl)-benzenesulfonamide]: the pIC50 is 8.05 and the inhibition at 0.2 µM came to 102%. For the compound `CC(=O)C1=C(N(Cc2ccc(F)c(C(F)(F)F)c2)S(=O)(=O)c2ccccc2)S(=O)(=O)c2ccccc21` [Compound 460, N-(3-Acetyl-1,1-dioxo-1H-benzo[b]thiophen-2-yl)-N-(4-fluoro-3-trifluoromethyl-benzyl)-benzenesulfonamide], the pIC50 is 8.10 and the inhibition at 0.2 µM amounted to 102%.
